Source: PubChem BioAssay (NCI)
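Compound exposure: 48 hours, 5 concentrations, 96-well plates. TGI denotes the concentration required for complete inhibition of growth.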

Assays:
Assay in all cases: NCI anticancer screen, dose series, 48 h
786-0 renal = tested on: 786-0 renal
DMS 273 small cell lung = tested on: DMS 273 small cell lung
NCI-H226 lung = tested on: NCI-H226 lung
M14 melanoma = tested on: M14 melanoma
SNB-78 CNS = tested on: SNB-78 CNS
UACC-257 melanoma = tested on: UACC-257 melanoma
SF-295 CNS = tested on: SF-295 CNS
HOP-92 NSCLC = tested on: HOP-92 NSCLC
OVCAR-8 ovarian = tested on: OVCAR-8 ovarian
EKVX NSCLC = tested on: EKVX NSCLC
U251 CNS = tested on: U251 CNS
LXFL 529 NSCLC = tested on: LXFL 529 NSCLC
HT29 colon = tested on: HT29 colon
CAKI-1 renal = tested on: CAKI-1 renal
ACHN renal = tested on: ACHN renal
UACC-62 melanoma = tested on: UACC-62 melanoma
SK-MEL-2 melanoma = tested on: SK-MEL-2 melanoma
RPMI-8226 leukemia = tested on: RPMI-8226 leukemia
KM12 colon = tested on: KM12 colon
SK-MEL-5 melanoma = tested on: SK-MEL-5 melanoma
SK-OV-3 ovarian = tested on: SK-OV-3 ovarian
NCI-H23 lung = tested on: NCI-H23 lung
NCI-H522 lung = tested on: NCI-H522 lung
SF-539 CNS = tested on: SF-539 CNS
CCRF-CEM leukemia = tested on: CCRF-CEM leukemia
XF 498 CNS = tested on: XF 498 CNS
SK-MEL-28 melanoma = tested on: SK-MEL-28 melanoma
UO-31 renal = tested on: UO-31 renal
HCT-15 colon = tested on: HCT-15 colon
SNB-19 CNS = tested on: SNB-19 CNS
IGROV1 ovarian = tested on: IGROV1 ovarian
LOX IMVI melanoma = tested on: LOX IMVI melanoma
SR leukemia = tested on: SR leukemia
DLD-1 colon = tested on: DLD-1 colon
OVCAR-3 ovarian = tested on: OVCAR-3 ovarian
DMS 114 small cell lung = tested on: DMS 114 small cell lung
TK-10 renal = tested on: TK-10 renal
SF-268 CNS = tested on: SF-268 CNS
A549 NSCLC = tested on: A549 NSCLC
SN12C renal = tested on: SN12C renal
M19-MEL melanoma = tested on: M19-MEL melanoma
HOP-62 NSCLC = tested on: HOP-62 NSCLC
HL-60(TB) leukemia = tested on: HL-60(TB) leukemia
OVCAR-4 ovarian = tested on: OVCAR-4 ovarian
KM20L2 colon = tested on: KM20L2 colon
K-562 leukemia = tested on: K-562 leukemia
SNB-75 CNS = tested on: SNB-75 CNS
SW-620 colon = tested on: SW-620 colon
OVCAR-5 ovarian = tested on: OVCAR-5 ovarian
HCT-116 colon = tested on: HCT-116 colon
COLO 205 colon = tested on: COLO 205 colon
MOLT-4 leukemia = tested on: MOLT-4 leukemia
MALME-3M melanoma = tested on: MALME-3M melanoma

Measured: TGI

S=C1NCCN1
> 100 µM: all assays above
